# Reference: PMC5907398, “Inhibition of Acetylcholinesterase and Butyrylcholinesterase by a Plant Secondary Metabolite Boldine” (BioMed Research International, 2018)
# How the values were obtained:
# [1] = molecular target: T1, Butyrylcholinesterase (BChE) (Homo sapiens, UniProt P06276); test: Ellman spectrophotometric assay with butyrylthiocholine, Dixon plot; type: biochemical; settings: read-out: IC50 (μmol/l) by spectrophotometry
# T1 construct: from human serum
# [2] = molecular target: T2, Acetylcholinesterase (AChE) (Homo sapiens, UniProt P22303); test: Ellman spectrophotometric assay with acetylthiocholine, Dixon plot; type: biochemical; settings: read-out: IC50 (μmol/l) by spectrophotometry
# T2 construct: human, recombinant (expressed in HEK 293 cells)
# T2 sequence (P22303 32-614): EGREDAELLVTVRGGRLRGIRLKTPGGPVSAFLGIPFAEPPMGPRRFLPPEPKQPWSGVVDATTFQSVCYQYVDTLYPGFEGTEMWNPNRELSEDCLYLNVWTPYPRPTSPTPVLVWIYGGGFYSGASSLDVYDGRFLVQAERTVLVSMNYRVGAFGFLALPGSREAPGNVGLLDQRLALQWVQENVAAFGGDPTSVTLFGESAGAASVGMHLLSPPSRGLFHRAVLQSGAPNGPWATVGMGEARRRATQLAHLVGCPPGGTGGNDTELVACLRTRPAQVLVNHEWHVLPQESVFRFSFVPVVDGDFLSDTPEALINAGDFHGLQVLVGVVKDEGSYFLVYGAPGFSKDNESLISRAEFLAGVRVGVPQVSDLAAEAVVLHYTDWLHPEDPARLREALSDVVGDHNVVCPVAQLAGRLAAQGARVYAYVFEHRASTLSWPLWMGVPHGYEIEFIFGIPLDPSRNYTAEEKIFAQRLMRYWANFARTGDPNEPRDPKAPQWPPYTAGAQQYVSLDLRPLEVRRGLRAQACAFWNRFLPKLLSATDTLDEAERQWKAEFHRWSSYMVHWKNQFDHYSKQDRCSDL
# T1 sequence (P06276 29-602): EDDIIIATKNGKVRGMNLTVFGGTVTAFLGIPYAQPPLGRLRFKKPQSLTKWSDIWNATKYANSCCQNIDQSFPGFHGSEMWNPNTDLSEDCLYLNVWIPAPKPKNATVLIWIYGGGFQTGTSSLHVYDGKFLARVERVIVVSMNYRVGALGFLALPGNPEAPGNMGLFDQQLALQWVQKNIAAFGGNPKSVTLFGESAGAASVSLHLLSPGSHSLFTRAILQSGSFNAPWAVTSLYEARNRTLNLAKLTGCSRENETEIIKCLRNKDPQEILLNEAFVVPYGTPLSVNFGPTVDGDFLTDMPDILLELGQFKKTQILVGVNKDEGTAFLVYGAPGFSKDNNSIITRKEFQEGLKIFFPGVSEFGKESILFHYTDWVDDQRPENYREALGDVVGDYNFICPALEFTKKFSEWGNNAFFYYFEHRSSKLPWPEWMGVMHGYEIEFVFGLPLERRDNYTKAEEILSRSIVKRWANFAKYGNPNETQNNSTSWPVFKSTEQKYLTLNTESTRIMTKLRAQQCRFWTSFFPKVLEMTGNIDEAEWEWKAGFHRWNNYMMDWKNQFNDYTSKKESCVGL
structure (smiles),measurement,setting,value
"COc1cc2c(cc1O)C[C@H]1c3c(cc(O)c(OC)c3-2)CCN1C [boldine, (S)-2,9-dihydroxy-1,10-dimethoxy-aporphine]",IC50,[1],322 µmol/L
same,IC50,[2],372 µmol/L
